From paper PMC6832651, “Design, Synthesis and Investigation of the Potential Anti-Inflammatory Activity of 7-O-Amide Hesperetin Derivatives” (Molecules, 2019) come the findings set out here.

Series [1] concerns LPS-induced NO production in RAW264.7 cells. Kind of series: Inhibition of LPS-induced NO production (Griess reagent). The class given is cell-based. The settings on record: Mus musculus, 10 μM compound, 1 h pretreatment, then LPS (1 μg/mL) 24 h, mean ± SD (n = 3).
The test system is the same in series [2]. The series is described as above. The following applies: for IC50: Mus musculus, 1 h pretreatment, then LPS 24 h, mean ± SD (n = 3); for LPS-induced NO release: LPS-stimulated, result in words. The class given is cell-based, mouse. The protocol:
NO is an important inflammatory mediator and is overproduced and secreted out of mouse macrophages in response to bacterial lipopolysaccharide. To evaluate the anti-inflammatory activity of hesperetin derivatives, the secretion level of NO was detected in the medium of RAW264.7 cells after LPS stimulated with Griess reagent. Before the cells were treated with LPS (1 μg/mL) for 24 h, pretreatment with the compounds for 1 hour. […] All hesperetin derivatives could decrease the release of NO induced by LPS. […] While extended the length of the amide side chain and the inhibitory activities increased (4d > 4c > 4a; 4e > 4b). […] On the other hand, the cavity was medium-sized, large enough to accommodate cyclopentyl and propyl groups, but not enough to accommodate cyclohexyl and butyl ones (4a < 4b < 4d > 4f; 4k > 4l).
Nitrite levels were determined using the Griess method for NO has a short half-life and is oxidized to stable nitrite. RAW 264.7 cells were plated at a density of 2 × 10^5 per well in a 24-well culture plate and incubated in a 37 °C humidified incubator (5% CO2). After overnight Cultured, discarded the supernatant, added pre-configured compounds of different concentrations to the 24-well plate, and added the same one-thousandth of the DMSO solvent as the control to the experimental group for 1 h. Then LPS was added to experimental and model groups at a concentration of […] for 24 h compared to vehicle control. Following treatment, media was collected and centrifuged at 2000 rpm for 5 min to remove cellular debris. The medium from treated cells was removed and placed into a 96-well plate (50 µL per well) and was measured in culture supernatant using Griess reagent at 540 nm. The IC50 values of compounds were calculated by SPSS23.

The subject of series [3] is IL-6. The experiment in a line: IL-6 level in medium of LPS-induced RAW264.7 cells (ELISA). The class given is cell-based, mouse. The settings on record: 10 μM compound (Figure 2A-C). From the text: (§1) When inflammation occurs, LPS-activated macrophages produce a variety of inflammatory cytokines, including TNF-α, interleukins (ILs), and nitric oxide (NO), which show a host shielding effect and also accelerate the occurrence of the inflammatory response during inflammatory situations. To evaluate the anti-inflammatory activity of hesperetin derivatives, the levels of TNF-α, IL-6 and IL-1β in the medium of LPS-induced macrophage cells were detected by enzyme linked immunosorbent assay (ELISA). […] Later, we will select one of them as lead compound and modify the structure at the 3’-OH, 5-OH and 4-carbonyl positions. […] Compounds 4d (MW = 401) and 4k (MW = 427) have similar structures and should have the same mechanism. Therefore, compound 4d with lower molecular weight was selected to further explore the mechanism(s) of the anti-inflammatory effect.
(§2) RAW264.7 cells (2 × 10^5 cells/well) were cultured in 24-well plate and pretreated with 10 μM of compounds for 1 h. And then stimulated with LPS, […], for 24 h. The cell culture supernatant were collected and the levels of TNF-α, IL-6 and IL-1β were determined using the ELISA kit (Elabscience, Wuhan, China). The optical density (OD) was measured at 540 nm. The results were analyzed using Origin Pro 8 (OriginLab, Northampton, MA, USA).

Series [4] relates to IL-1β. Kind of series: IL-1β level in medium of LPS-induced RAW264.7 cells (ELISA). The class given is cell-based, mouse. The following applies: 10 μM compound (Figure 2A-C).
Source text: as §1, §2

Series [5] concerns TNF-α. Kind of series: TNF-α level in medium of LPS-induced RAW264.7 cells (ELISA). Type of series: cell-based, mouse. The following applies: 10 μM compound (Figure 2A-C).
Source text: as §1, §2

For the molecule `COc1ccc([C@@H]2CC(=O)c3c(O)cc(OCC(=O)N4CCN(C)CC4)cc3O2)cc1O` [Compound 6d, 7-O-(2-(4-Methylpiperazin-1-yl)-2-oxoethyl)hesperetin], the melting point lay within 167.3 to 170.1 °C.

Molecule `COc1ccc([C@@H]2CC(=O)c3c(O)cc(OCC(=O)N4CCCCC4CO)cc3O2)cc1O` (stereo partly drawn) [Compound 6c, 7-O-(2-(2-(Hydroxymethyl)piperidin-1-yl)-2-oxoethyl)hesperetin] had a melting point of 123.2 to 125.8 °C. Further, the inhibition at 10 µM in series [1] came out at 9.1 ± 3.67%. Further, the IC50 in series [2] is 40.6 ± 5.56 µM.

With `COc1ccc([C@@H]2CC(=O)c3c(O)cc(OCC(=O)N4CCSC4)cc3O2)cc1O` [Compound 5b, 7-O-(2-(Thiazolidin-3-yl)-2-oxoethyl)hesperetin], the melting point was 152.4 to 154.7 °C. Besides, in series [1], the inhibition at 10 µM is 22.7 ± 5.71%. Besides, the IC50 in series [2] came to 30 ± 0.43 µM.

Molecule `COc1ccc([C@@H]2CC(=O)c3c(O)cc(OCC(=O)N4CCCC4)cc3O2)cc1O` [Compound 5a, 7-O-(2-(Pyrrolidin-1-yl)-2-oxoethyl)hesperetin] yielded a melting point of 127.1 to 130.5 °C. In series [1], the inhibition at 10 µM was 18.9 ± 4.02%. Moreover, the IC50 in series [2] is 36.2 ± 5.83 µM.

`CNC(=O)COc1cc(O)c2c(c1)O[C@H](c1ccc(OC)c(O)c1)CC2=O` [Compound 4a, 7-O-(2-(Methylamino)-2-oxoethyl)hesperetin] came in with a melting point of 179.8 to 182.7 °C. In addition, the inhibition at 10 µM in series [1] came out at 16 ± 0.06%. Also, in series [2], the IC50 turned out to be 38.5 ± 2 µM.

The molecule `COc1ccc([C@@H]2CC(=O)c3c(O)cc(OCC(=O)NC(C)(C)C)cc3O2)cc1O` [Compound 4h, 7-O-(2-(tert-Butylamino)-2-oxoethyl)hesperetin] gave a melting point of 140.5 to 142.4 °C. The inhibition at 10 µM in series [1] amounted to 17.5 ± 1.33%. Further, in series [2], the IC50 amounted to 42 ± 6.15 µM.

`CCNC(=O)COc1cc(O)c2c(c1)O[C@H](c1ccc(OC)c(O)c1)CC2=O` [Compound 4b, 7-O-(2-(Ethylamino)-2-oxoethyl)hesperetin]: the melting point was 171.2 to 173.6 °C. Further, the inhibition at 10 µM in series [1] came out at 21.5 ± 1.29%. Also, in series [2], the IC50 is 29.9 ± 3.4 µM.

Turning to `Cc1ccc(-c2cc(C(F)(F)F)nn2-c2ccc(S(N)(=O)=O)cc2)cc1` [Cel, celecoxib, reference compound], the inhibition at 10 µM in series [1] was determined as 14.5 ± 3.61%. The IC50 in series [2] worked out at 26.4 ± 0.46 µM.

In the case of `COc1ccc([C@@H]2CC(=O)c3c(O)cc(OCC(=O)N4CCOCC4)cc3O2)cc1O` [Compound 6f, 7-O-(2-Morpholino-2-oxoethyl)hesperetin], the melting point was in the range of 188.7 to 189.3 °C. In series [1], the inhibition at 10 µM is 21 ± 0.31%. Besides, the half-maximal inhibitory concentration (IC50) in series [2] was 32.6 ± 1.51 µM.

The molecule `COc1ccc([C@@H]2CC(=O)c3c(O)cc(OCC(=O)N4CCCCC4)cc3O2)cc1O` [Compound 6a, 7-O-(2-(piperidin-1-yl)-2-oxoethyl)hesperetin] came in with a melting point of 165.4 to 167.9 °C. Also, in series [1], the inhibition at 10 µM was 30.2 ± 4.67%. Moreover, in series [2], the “LPS-induced NO release” value was “significantly alleviated the increase of LPS-induced NO release” and the concentration for half-maximal inhibition (IC50) stood at 23.4 ± 1.64 µM.

`COc1ccc([C@@H]2CC(=O)c3c(O)cc(OCC(=O)NCCN(C)C)cc3O2)cc1O` [Compound 7b, 7-O-(2-((2-(Dimethylamino)ethyl)amino)-2-oxoethyl)hesperetin] returned a melting point of 137.1 to 139.4 °C. The inhibition at 10 µM in series [1] worked out at 12.4 ± 0.67%. Also, the IC50 in series [2] stood at 92.5 ± 33.7 µM.

For `COc1ccc([C@@H]2CC(=O)c3c(O)cc(OCC(=O)NC(C)C)cc3O2)cc1O` [Compound 4e, 7-O-(2-(Isopropylamino)-2-oxoethyl)hesperetin], the melting point was 157.6 to 160.4 °C. Also, the “inhibitory effect on IL-6 production” value in series [3] is “greater inhibitory effects than indomethacin (Ind) and celecoxib (Cel)”. In series [1], the inhibition at 10 µM was determined as 27.1 ± 5.88%. Also, the “inhibitory effect on IL-1β production” value in series [4] was “greater inhibitory effects than indomethacin (Ind) and celecoxib (Cel)”. Besides, in series [2], the “LPS-induced NO release” value is on record as “significantly alleviated the increase of LPS-induced NO release” and the 50% inhibitory concentration (IC50) came out at 26.1 ± 1.21 µM. Further, in series [5], the “inhibitory effect on TNF-α production” value was “greater inhibitory effects than indomethacin (Ind) and celecoxib (Cel)”.

Regarding `COc1ccc([C@@H]2CC(=O)c3c(O)cc(OCC(=O)N(C)C)cc3O2)cc1O` [Compound 4c, 7-O-(2-(Dimethylamino)-2-oxoethyl)hesperetin], the melting point fell in the range of 164.1 to 165.8 °C. Further, in series [1], the inhibition at 10 µM is 13.5 ± 1.63%. In series [2], the concentration for half-maximal inhibition (IC50) was 32.5 ± 2.46 µM.

Take `COc1ccc([C@@H]2CC(=O)c3c(O)cc(OCC(=O)N4CCCC(CO)C4)cc3O2)cc1O` (stereo partly drawn) [Compound 6b, 7-O-(2-(3-(Hydroxymethyl)piperidin-1-yl)-2-oxoethyl)hesperetin]: the melting point lay in the range of 168.6 to 171.8 °C. In series [1], the inhibition at 10 µM turned out to be 19.3 ± 1.94%. Besides, in series [2], the half-maximal inhibitory concentration (IC50) stood at 31.1 ± 2.93 µM.

`CCN(CC)C(=O)COc1cc(O)c2c(c1)O[C@H](c1ccc(OC)c(O)c1)CC2=O` [Compound 4i, 7-O-(2-(Diethylamino)-2-oxoethyl)hesperetin] returned a melting point of 146.3 to 147.8 °C. Also, the inhibition at 10 µM in series [1] came out at 17.5 ± 2.33%. Further, in series [2], the half-inhibitory concentration (IC50) was 30.5 ± 1.66 µM.

With `CCN1CCN(C(=O)COc2cc(O)c3c(c2)O[C@H](c2ccc(OC)c(O)c2)CC3=O)CC1` [Compound 6e, 7-O-(2-(4-Ethylpiperazin-1-yl)-2-oxoethyl)hesperetin], the melting point lay in the range of 160.7 to 162.9 °C.

As to `CCCCNC(=O)COc1cc(O)c2c(c1)O[C@H](c1ccc(OC)c(O)c1)CC2=O` [Compound 4f, 7-O-(2-(Butylamino)-2-oxoethyl)hesperetin], the melting point fell in the range of 136.9 to 138.4 °C. In series [1], the inhibition at 10 µM is 18 ± 0.82%. The IC50 in series [2] was found to be 29.7 ± 3.06 µM.

With `COc1ccc([C@@H]2CC(=O)c3c(O)cc(OCC(=O)NCCN4CCOCC4)cc3O2)cc1O` [Compound 7c, 7-O-(2-((2-Mmorpholinoethyl)amino)-2-oxoethyl) hesperetin], the melting point is 160.7 to 162.9 °C. Further, the inhibition at 10 µM in series [1] was found to be 18.4 ± 4.55%. For the same molecule, the IC50 in series [2] is 42.4 ± 2.06 µM.

In the case of `COc1ccc2c(c1)c(CC(=O)O)c(C)n2C(=O)c1ccc(Cl)cc1` [Ind, indomethacin, reference compound], the inhibition at 10 µM in series [1] came out at 12.9 ± 3.09%. Moreover, in series [2], the 50% inhibitory concentration (IC50) worked out at 35.3 ± 8.07 µM.

In turn, `COc1ccc([C@@H]2CC(=O)c3c(O)cc(OCC(=O)NC4CC4)cc3O2)cc1O` [Compound 4j, 7-O-(2-(Cyclopropylamino)-2-oxoethyl)hesperetin] registered a melting point of 190.8 to 193.1 °C. Also, in series [1], the inhibition at 10 µM was 9.57 ± 5.53%. The 50% inhibitory concentration (IC50) in series [2] worked out at 41.7 ± 2.79 µM.

In the case of `COc1ccc([C@@H]2CC(=O)c3c(O)cc(OCC(=O)NC4CCCCC4)cc3O2)cc1O` [Compound 4l, 7-O-(2-(Cyclohexylamino)-2-oxoethyl)hesperetin], the melting point fell in the range of 181.9 to 184.1 °C. Besides, the inhibition at 10 µM in series [1] was determined as 20.3 ± 2%. For the same molecule, the concentration for half-maximal inhibition (IC50) in series [2] is 33.3 ± 3.3 µM.

As to `COc1ccc([C@@H]2CC(=O)c3c(O)cc(OCC(=O)NCCO)cc3O2)cc1O` [Compound 7a, 7-O-(2-((2-Hydroxyethyl)amino)-2-oxoethyl)hesperetin], the melting point was 183.8 to 185.7 °C. Further, the inhibition at 10 µM in series [1] came to 15 ± 1.99%. Moreover, the IC50 in series [2] was 28.4 ± 5.33 µM.

As for `COc1ccc([C@@H]2CC(=O)c3c(O)cc(OCC(=O)NCC(C)C)cc3O2)cc1O` [Compound 4g, 7-O-(2-(Isobutylamino)-2-oxoethyl)hesperetin], the melting point lay in the range of 136.9 to 139.4 °C. Also, in series [1], the inhibition at 10 µM was found to be 23.5 ± 0.74%. Further, in series [2], the “LPS-induced NO release” value is listed as “significantly alleviated the increase of LPS-induced NO release” and the IC50 amounted to 24.59 ± 0.22 µM.
